These results are taken from patent US12247010B2, “Tubulin inhibitors” (LIN BIOSCIENCE PTY LTD., priority 2017, dated 2025).

Each structure is given as a SMILES string.

The test relates to U87MG cells. The test is described as follows: Cytotoxicity assay (cell viability, CellTiter 96 Aqueous MTS). Type of test: cell-based. The following applies: Homo sapiens, U-87 MG, 72 h, 72 hours incubation, starting concentration 50 uM, 9 point half log dilution, average where tested repeatedly. An outline of the steps: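 U87MG cells plated at 7×10^3 cells/well overnight, then treated 72 h with 9-point half-log dilutions from a 50 uM starting concentration. Viability measured with CellTiter 96 Aqueous MTS; IC50 calculated from viability.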
Usually IC50 stands for the concentration needed to halve the response being measured. Read a low IC50 as higher potency. Consider `Cc1cc(C(=O)NCCCc2ccc(-c3ccc4ncccc4c3)cc2)n(C)n1` [Compound 242, 1,3-dimethyl-N-(3-(4-(quinolin-6-yl)phenyl)propyl)-1H-pyrazole-5-carboxamide], for which the IC50 is less than 500 nM.

`COc1ccc(CC(=O)NCCCc2ccc(-c3ccc4c(cnn4C)c3)cc2)cc1` [Compound 244, 2-(4-methoxyphenyl)-N-(3-(4-(1-methyl-1H-indazol-5-yl)phenyl)propyl)acetamide] had an IC50 of less than 500 nM. With `COc1ccc(CC(=O)NCCCc2ccc(-c3cccc(OC)c3F)cc2)cc1` [Compound 245, N-(3-(2′-fluoro-3′-methoxy-[1,1′-biphenyl]-4-yl)propyl)-2-(4-methoxyphenyl)acetamide] the figure was 501 to 1000 nM; with `COc1ccc(CC(=O)NCCCc2ccc(-c3ccc4ncccc4c3)cc2)cc1` [Compound 246, 2-(4-methoxyphenyl)-N-(3-(4-(quinolin-6-yl)phenyl)propyl)acetamide], less than 500 nM; with `COc1ccc(CC(=O)NCCCc2ccc(-c3ccc4[nH]ncc4c3C)cc2)cc1` [Compound 247, 2-(4-methoxyphenyl)-N-(3-(4-(4-methyl-1H-indazol-5-yl)phenyl)propyl)acetamide], less than 500 nM.

In turn, `COc1cccc(-c2ccc(CCCNC(=O)c3cncnc3)cc2)c1F` [Compound 248] gave an IC50 of 501 to 1000 nM. `O=S(=O)(NCCCc1ccc(-c2ccccc2F)cc1)c1cccnc1` [Compound 262, N-(3-(2′-fluoro-[1,1′-biphenyl]-4-yl)propyl) pyridine-3-sulfonamide] gave a half-inhibitory concentration (IC50) of 1000 to 5000 nM.

Regarding `Cn1cnc(S(=O)(=O)NCCCc2ccc(-c3ccccc3F)cc2)c1` [Compound 263, N-(3-(2′-fluoro-[1,1′-biphenyl]-4-yl)propyl)-1-methyl-1H-imidazole-4-sulfonamide], the 50% inhibitory concentration (IC50) fell in the range of 1000 to 5000 nM. The value for `O=C(Nc1ccc2[nH]ccc2c1)OCCc1ccc(-c2ccccc2F)cc1` [Compound 272, 2-(2′-fluoro-[1,1′-biphenyl]-4-yl)ethyl (1H-indol-5-yl)carbamate] was greater than 5000 nM. Consider `COc1ccc(CNC(=O)OCCc2ccc(-c3ccccc3F)cc2)cc1` [Compound 273, 2-(2′-fluoro-[1,1′-biphenyl]-4-yl)ethyl (4-methoxybenzyl)carbamate], for which the IC50 was greater than 5000 nM. The value for `Cc1ccc(NC(=O)OCCc2ccc(-c3ccccc3F)cc2)cn1` [Compound 274, 2-(2′-fluoro-[1,1′-biphenyl]-4-yl)ethyl (6-methylpyridin-3-yl)carbamate] was greater than 5000 nM; that for `COc1cccc(-c2ccc(CC(C)(C)CNC(=O)c3ccc(C)nc3)cc2)c1F` [Compound 276, N-(3-(2′-fluoro-3′-methoxy-[1,1′-biphenyl]-4-yl)-2,2-dimethylpropyl)-6-methylnicotinamide] was 1000 to 5000 nM. With `Cc1ccc(C(=O)NCC(C)(C)Cc2ccc(-c3ccc4c(cnn4C)c3)cc2)cn1` [Compound 277, N-(2,2-dimethyl-3-(4-(1-methyl-1H-indazol-5-yl)phenyl)propyl)-6-methylnicotinamide] the figure was 501 to 1000 nM; with `O=C(Nc1cccnc1)N1CCN(c2ccc(-c3ccccc3F)cc2)CC1` [Compound 278, 4-(2′-fluoro-[1,1′-biphenyl]-4-yl)-N-(pyridin-3-yl)piperazine-1-carboxamide], 1000 to 5000 nM. The value for `Cc1ccc(NC(=O)N2CCN(c3ccc(-c4ccccc4F)cc3)CC2)cn1` [Compound 279, 4-(2′-fluoro-[1,1′-biphenyl]-4-yl)-N-(6-methylpyridin-3-yl)piperazine-1-carboxamide] was 501 to 1000 nM.

Consider `O=C(Nc1cn[nH]c1)N1CCN(c2ccc(-c3ccccc3F)cc2)CC1` [Compound 281, 4-(2′-fluoro-[1,1′-biphenyl]-4-yl)-N-(1H-pyrazol-4-yl)piperazine-1-carboxamide], for which the IC50 is greater than 5000 nM. The value for `Cc1ccc(C(=O)NCCOc2ccc(-c3ccccc3F)cc2)cn1` [Compound 282, N-(2-((2′-fluoro-[1,1′-biphenyl]-4-yl)oxy)ethyl)-6-methylnicotinamide] was greater than 5000 nM; that for `O=C(Cc1ccc(F)cc1)NCCCc1ccc(-c2ccccc2F)cc1` [Compound 284, N-(3-(2′-fluoro-[1,1′-biphenyl]-4-yl)propyl)-2-(4-fluorophenyl)acetamide] was less than 500 nM; that for `Cc1oncc1C(=O)NCCCc1ccc(-c2ccccc2F)cc1` [Compound 285, N-(3-(2′-fluoro-[1,1′-biphenyl]-4-yl)propyl)-5-methylisoxazole-4-carboxamide] was greater than 5000 nM. For `Cc1cc2ncc(C(=O)NCCCc3ccc(-c4ccccc4F)cc3)cn2n1` [Compound 286, N-(3-(2′-fluoro-[1,1′-biphenyl]-4-yl)propyl)-2-methylpyrazolo[1,5-a]pyrimidine-6-carboxamide], the half-inhibitory concentration (IC50) is less than 500 nM. The value for `Cc1ncoc1C(=O)NCCCc1ccc(-c2ccccc2F)cc1` [Compound 290, N-(3-(2′-fluoro-[1,1′-biphenyl]-4-yl)propyl)-4-methyloxazole-5-carboxamide] was greater than 5000 nM; that for `COc1ncccc1C(=O)NCCCc1ccc(-c2ccccc2F)cc1` [Compound 292, N-(3-(2′-fluoro-[1,1′-biphenyl]-4-yl)propyl)-2-methoxynicotinamide] was greater than 5000 nM; that for `O=C(Cc1ccc2c(c1)OCCO2)NCCCc1ccc(-c2ccccc2F)cc1` [Compound 293, 2-(2,3-dihydrobenzo[b][1,4]dioxin-6-yl)-N-(3-(2′-fluoro-[1,1′-biphenyl]-4-yl)propyl)acetamide] was greater than 5000 nM. The value for `Cn1ccc2cc(-c3ccc(CCCC(=O)Nc4cccnc4)cc3)cnc21` [Compound 294, 4-(4-(1-methyl-1H-pyrrolo[2,3-b]pyridin-5-yl)phenyl)-N-(pyridin-3-yl)butanamide] was 501 to 1000 nM; that for `O=C(CCCc1ccc(-c2c[nH]c3ncccc23)cc1)Nc1cccnc1` [Compound 295, 4-(4-(1H-pyrrolo[2,3-b]pyridin-3-yl)phenyl)-N-(pyridin-3-yl)butanamide] was 1000 to 5000 nM; that for `Cn1cnc2cc(-c3ccc(CCCC(=O)Nc4cccnc4)cc3)ccc21` [Compound 296, 4-(4-(1-methyl-1H-benzo [d]imidazol-5-yl)phenyl)-N-(pyridin-3-yl)butanamide] was less than 500 nM. Turning to `Cc1nc2cc(-c3ccc(CCCC(=O)Nc4cccnc4)cc3)ccc2n1C` [Compound 297, 4-(4-(1,2-dimethyl-1H-benzo[d]imidazol-5-yl)phenyl)-N-(pyridin-3-yl)butanamide], the IC50 is less than 500 nM. `Cn1cnc2ccc(-c3ccc(CCCC(=O)Nc4cccnc4)cc3)cc2c1=O` [Compound 299, 4-(4-(3-methyl-4-oxo-3,4-dihydroquinazolin-6-yl)phenyl)-N-(pyridin-3-yl)butanamide] yielded an IC50 greater than 5000 nM.

As for `Cc1cc(-c2ccc(CCCC(=O)Nc3cccnc3)cc2)cc2cn[nH]c12` [Compound 301, 4-(4-(7-methyl-1H-indazol-5-yl)phenyl)-N-(pyridin-3-yl)butanamide], the IC50 is less than 500 nM.

In the case of `Cc1cc2[nH]ncc2cc1-c1ccc(CCCC(=O)Nc2cccnc2)cc1` [Compound 302, 4-(4-(6-methyl-1H-indazol-5-yl)phenyl)-N-(pyridin-3-yl)butanamide], the IC50 was 1000 to 5000 nM.

In turn, `Cc1ccc(C(=O)NCC2(Cc3ccc(-c4ccc5c(cnn5C)c4)cc3)CC2)cn1` [Compound 303, 6-methyl-N-((1-(4-(1-methyl-1H-indazol-5-yl)benzyl)cyclopropyl)methyl) nicotinamide] returned a half-maximal inhibitory concentration (IC50) greater than 5000 nM. The value for `COc1cccc(-c2ccc(CCCNC(=O)c3cnc(C)s3)cc2)c1F` [Compound 304, N-(3-(2′-fluoro-3′-methoxy-[1,1′-biphenyl]-4-yl)propyl)-2-methylthiazole-5-carboxamide] was less than 500 nM; that for `Cc1ncc(C(=O)NCCCc2ccc(-c3ccc4c(cnn4C)c3)cc2)s1` [Compound 305, 2-methyl-N-(3-(4-(1-methyl-1H-indazol-5-yl)phenyl)propyl)thiazole-5-carboxamide] was less than 500 nM; that for `O=C(NCCCc1ccc(-c2ccc3ncccc3c2)cc1)c1cncnc1` [Compound 306, N-(3-(4-(quinolin-6-yl)phenyl)propyl)pyrimidine-5-carboxamide] was less than 500 nM. Take `O=C(NCCCc1ccc(-c2cnc3[nH]ccc3c2)cc1)c1cncnc1` [Compound 307, N-(3-(4-(1H-pyrrolo [2,3-b]pyridin-5-yl)phenyl)propyl)pyrimidine-5-carboxamide]: the 50% inhibitory concentration (IC50) is less than 500 nM.

`Cc1ncc(C(=O)NCCCc2ccc(-c3ccc4[nH]ncc4c3C)cc2)s1` [Compound 308, 2-methyl-N-(3-(4-(4-methyl-1H-indazol-5-yl)phenyl)propyl)thiazole-5-carboxamide] came in with an IC50 of less than 500 nM.

In turn, `Cc1ncc(C(=O)NCCCc2ccc(-c3cnc4[nH]ccc4c3)cc2)s1` [Compound 309, N-(3-(4-(1H-pyrrolo[2,3-b]pyridin-5-yl)phenyl)propyl)-2-methylthiazole-5-carboxamide] registered a concentration for half-maximal inhibition (IC50) of less than 500 nM.

`Cc1ncccc1C(=O)NCCCc1ccc(-c2ccc3[nH]ncc3c2C)cc1` [Compound 310, 2-methyl-N-(3-(4-(4-methyl-1H-indazol-5-yl)phenyl)propyl)nicotinamide] yielded an IC50 of less than 500 nM.

Consider `Cc1ncccc1C(=O)NCCCc1ccc(-c2cnc3[nH]ccc3c2)cc1` [Compound 311, N-(3-(4-(1H-pyrrolo[2,3-b]pyridin-5-yl)phenyl)propyl)-2-methylnicotinamide], for which the IC50 was less than 500 nM. With `Cc1ccc(C(=O)NCCCc2ccc(-c3ccc4c(c3)OCC(=O)N4)cc2)cn1` [Compound 312, 6-methyl-N-(3-(4-(3-oxo-3,4-dihydro-2H-benzo[b][1,4]oxazin-7-yl)phenyl)propyl)nicotinamide] the figure was less than 500 nM; with `Cc1cc(C(=O)NCCCc2ccc(-c3ccc4c(c3)OCC(=O)N4)cc2)n(C)n1` [Compound 313, 1,3-dimethyl-N-(3-(4-(3-oxo-3,4-dihydro-2H-benzo[b][1,4]oxazin-7-yl)phenyl)propyl)-1H-pyrazole-5-carboxamide], less than 500 nM.
